The record followed here is patent US8476284B2, “Inhibitors of Bruton's tyrosine kinase” (Pharmacyclics, Inc., priority 2006, dated 2013).

In one assay the target is Btk (Homo sapiens (Human), UniProt Q06187). The assay is described as follows: Btk acellular kinase assay (TR-FRET). A general note: TR-FRET usually uses a lanthanide donor and a delayed reading to cut background.
Another assay deals with DHL-6 cells. The assay is described as follows: DHL-6 cell growth (Alamar Blue assay). It counts as cell-based. Conditions: 3E4 cells/well, complete media. Background: Alamar Blue is a resazurin reagent that responds to reducing activity.

Chain of Btk (Q06187 whole entry): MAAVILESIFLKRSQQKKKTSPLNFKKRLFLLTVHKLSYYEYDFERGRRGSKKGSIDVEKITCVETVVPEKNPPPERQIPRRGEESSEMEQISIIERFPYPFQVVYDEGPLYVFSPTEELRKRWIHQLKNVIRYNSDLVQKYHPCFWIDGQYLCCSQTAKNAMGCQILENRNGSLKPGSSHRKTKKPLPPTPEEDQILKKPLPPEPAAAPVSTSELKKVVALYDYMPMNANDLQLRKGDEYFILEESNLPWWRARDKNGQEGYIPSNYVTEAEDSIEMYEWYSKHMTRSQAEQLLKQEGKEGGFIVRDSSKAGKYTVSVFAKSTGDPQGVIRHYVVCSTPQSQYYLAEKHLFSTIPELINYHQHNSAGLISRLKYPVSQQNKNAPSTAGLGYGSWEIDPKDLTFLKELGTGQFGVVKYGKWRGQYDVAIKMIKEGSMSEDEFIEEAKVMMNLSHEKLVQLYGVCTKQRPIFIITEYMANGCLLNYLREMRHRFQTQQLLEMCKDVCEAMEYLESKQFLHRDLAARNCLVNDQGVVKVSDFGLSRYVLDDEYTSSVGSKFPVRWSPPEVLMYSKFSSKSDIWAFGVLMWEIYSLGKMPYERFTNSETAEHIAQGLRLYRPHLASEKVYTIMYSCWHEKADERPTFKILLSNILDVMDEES

Take `C/C=C/C(=O)N1CCCC(n2nc(-c3ccc(Oc4ccccc4)cc3)c3c(N)ncnc32)C1` (centres unmarked) [Compound 5, (E)-1-(3-(4-amino-3-(4-phenoxyphenyl)-1H-pyrazolo[3,4-d]pyrimidin-1-yl)piperidin-1-yl)but-2-en-1-one]: the “fold less potent than 4” value on Btk is given as 28 fold. In the case of `CN(C)C/C=C/C(=O)N1CCCC(n2nc(-c3ccc(Oc4ccccc4)cc3)c3c(N)ncnc32)C1` (centres unmarked) [Compound 15, (E)-1-(3-(4-amino-3-(4-phenoxyphenyl)-1H-pyrazolo[3,4-d]pyrimidin-1-yl)piperidin-1-yl)-4-(dimethylamino)but-2-en-1-one], the “growth of DHL-6 cells” value in the assay on DHL-6 cells is “inhibit growth”.
